The values that follow come from ChEMBL document CHEMBL6182843, “Actinomycetes: Treasure trove for discovering novel antibiotic candidates” (2025).

What all share (format): functional
One assay concerns Acinetobacter baumannii. Kind of assay: Antibacterial activity against Acinetobacter baumannii ATCC 19606 assessed as reduction in microbial growth by CLSI protocol based broth micro-dilution method. For orientation: Broth dilution looks for growth in wells or tubes with falling amounts of substance.
Assay [1] has as its system Staphylococcus aureus. Briefly: Antibacterial activity against methicillin-resistant Staphylococcus aureus MB5393 assessed as reduction in bacterial growth incubated for 18 to 20 hrs by broth micro-dilution method. Conditions: time 18-20 hrs.
For assay [2], the system named is Staphylococcus aureus. Kind of assay: Antibacterial activity against Staphylococcus aureus ATCC 25923 assessed as reduction in bacterial growth by CLSI protocol based MHB micro-silution method.
In another assay the test system is Streptococcus suis. Kind of assay: Antibacterial activity against Streptococcus suis SC19 assessed as reduction in bacterial growth by CLSI protocol based MHB micro-silution method.
For assay [3], the system named is Erysipelothrix rhusiopathiae. Briefly: Antibacterial activity against Erysipelothrix rhusiopathiae WH13013 assessed as reduction in bacterial growth by CLSI protocol based MHB micro-silution method.
For assay [4], the system named is Staphylococcus aureus. Briefly: Antibacterial activity Staphylococcus aureus ATCC 25923 assessed as reduction in bacterial growth.
The subject of assay [5] is Bacillus subtilis. Kind of assay: Antibacterial activity Bacillus subtilis ATCC 49343 assessed as reduction in bacterial growth.
The test system of assay [6] is Escherichia coli. Kind of assay: Antibacterial activity Escherichia coli ATCC 8739 assessed as reduction in bacterial growth.
The subject of assay [7] is Bacillus subtilis. Briefly: Antibacterial activity against Bacillus subtilis ATCC 6633 assessed as reduction in microbial growth.
The subject of assay [8] is Staphylococcus aureus. Kind of assay: Antibacterial activity against Staphylococcus aureus ATCC 25923 assessed as reduction in microbial growth.
The subject of assay [9] is Staphylococcus aureus. Briefly: Antibacterial activity against Staphylococcus aureus ATCC 33592 assessed as reduction in microbial growth.
Assay [10] relates to Staphylococcus aureus. Briefly: Antibacterial activity against methicillin-Staphylococcus aureus ATCC 29213 assessed as reduction in bacterial growth by broth micro-dilution method.
The subject of a further assay is Micrococcus luteus. Kind of assay: Antibacterial activity against Micrococcus luteus ML01 assessed as reduction in bacterial growth incubated for 24 to 48 hrs by serial dilution method. The settings on record: time 24-48 hrs.
Another assay has as its system Kocuria rhizophila. Briefly: Antimicrobial activity against Kocuria rhizophila ATCC 9341 assessed as reduction in microbial growth.
In assay [11] the test system is Staphylococcus aureus. Kind of assay: Antimicrobial activity against Staphylococcus aureus ATCC 25913 assessed as reduction in bacterial growth by CLSI protocol based Mueller-Hinton broth micro-dilution method.
Another assay concerns Enterococcus faecalis. Kind of assay: Antibacterial activity against Enterococcus faecalis ATCC 29212 assessed as reduction in microbial growth by CLSI protocol based Mueller-Hinton broth micro-dilution method.
For a further assay, the system named is Bacillus cereus. Briefly: Antibacterial activity against Bacillus cereus ATCC 11778 assessed as reduction in bacterial growth.
Assay [12] has as its system Staphylococcus aureus. Kind of assay: Antibacterial activity against Staphylococcus aureus assessed as reduction in microbial growth incubated for 24 hrs by CLSI protocol based analysis.
The test system of assay [13] is Escherichia coli. Kind of assay: Antibacterial activity against Escherichia coli ATCC 25922 assessed as reduction in microbial growth incubated for 24 hrs by CLSI protocol based analysis.
In assay [14] the test system is Staphylococcus aureus. Briefly: Antibacterial activity against Staphylococcus aureus.
Assay [15] concerns Escherichia coli. Briefly: Antibacterial activity against Escherichia coli DH5a.
Assay [16] deals with Bacillus subtilis. Briefly: Antibacterial activity against Bacillus subtilis.

≈ marks a conversion by molar mass, not a printed value. A value given as a limit tells only on which side of the number the result lay.

Regarding `COc1cc(-c2ccccn2)nc(/C=N/O)c1S(C)(=O)=O`, the MIC with Acinetobacter baumannii amounted to 128 µg/mL.
For the compound `CC[C@@H](/C=C/[C@@H]1C/C=C(\C)[C@@H](O)[C@@H](C)[C@H](O[C@H]2O[C@H](CO)[C@H](O)[C@@H](O)[C@H]2O)C[C@@H](O)[C@@H](C)[C@H](O)C[C@@H]2C[C@H](O)[C@@H](O)[C@](O)(C[C@@H](O[C@H]3O[C@@H](C)[C@H](O)[C@@H](O[C@H]4C[C@H](N)[C@@H](O)[C@@H](C)O4)[C@@H]3O[C@H]3O[C@@H](C)[C@H](O)[C@@H](O)[C@@H]3O)[C@@H](C)/C=C/[C@@H](O)C[C@@H](O)[C@@H](C)/C=C/C(=O)O1)O2)[C@@H](O)[C@@H](C)[C@H](CC)O[C@H]1C[C@](C)(N)[C@H](O)[C@H](C)O1`, the MIC in the assay with Staphylococcus aureus [1] amounted to 2 µg/mL (≈ 1.26 µM).
`C[C@@H](O)Cc1cc(O)cc2c1C(=O)c1c(O)ccc(O)c1C2=O`: the MIC with Staphylococcus aureus [2] came to 0.78 µg/mL (≈ 2.48 µM); in the assay on Streptococcus suis, 12.5 µg/mL (≈ 39.8 µM); in [3], 6.25 µg/mL (≈ 19.9 µM).
With `C=C(C)[C@@H]1CC[C@H](C)[C@H]2CC/C(C)=C/CC/C(C)=C/[C@H]21`, the MIC in the assay on Staphylococcus aureus [4] was 86.9 µg/mL (≈ 319 µM); with Bacillus subtilis [5], 48.4 µg/mL (≈ 178 µM); with Escherichia coli [6] it was 133 µg/mL (≈ 488 µM).
As for `CC[C@H](C)[C@@H]1NC(=O)[C@@H](Cc2c[nH]c3cc(Br)ccc23)NC(=O)[C@@H](Cc2c[nH]c3ccccc23)NC(=O)[C@@H](CO)NC(=O)[C@@H](CCC(=O)O)NC(=O)[C@@H](C(C)C)NC1=O`, the MIC with Bacillus subtilis [7] is 1.6 µg/mL; with Staphylococcus aureus [8], 6.3 µg/mL; with Staphylococcus aureus [9], 6.3 µg/mL.
In the case of `CCC[C@@H](O)Cc1cc(O)cc2c1C(=O)c1c(O)ccc(O)c1C2=O`, the MIC in the assay with Staphylococcus aureus [2] and in the assay with Streptococcus suis was 1.56 µg/mL (≈ 4.56 µM) throughout.
As for `O=C1NC(=O)C(c2c[nH]c3cc(Cl)c(Cl)cc23)=C1c1c[nH]c2ccc(Cl)cc12`, the MIC stood at 1 µg/mL (≈ 2.32 µM) in the assay on Staphylococcus aureus [10] and 0.5 µg/mL (≈ 1.16 µM) in the assay on Micrococcus luteus.
As to `CC(C)C[C@H](NC(=O)/C=N/O)[C@@H](O)[C@@H](C)C(=O)O`, in the assay on Kocuria rhizophila, the MIC is 50 µg/mL.
For `C[C@@H](O)[C@@H]1CC[C@H](c2ccc(O)c3c2C(=O)[C@@]24O[C@@]2([C@@H](C)O[C@@H]2CC(=O)O[C@@H]24)[C@H]3O)N1C`, the MIC in the assay on Staphylococcus aureus [11] amounted to 40 µg/mL (≈ 89.8 µM); in the assay with Enterococcus faecalis, 40 µg/mL.
For the compound `C=C(C)[C@@H]1CC[C@H](C)[C@H]2CC/C(C)=C/C[C@H](O)/C(C(=O)O)=C/[C@H]21`, the MIC with Staphylococcus aureus [4] was found to be 49.7 µg/mL (≈ 156 µM); in the assay on Bacillus subtilis [5], 1.1 µg/mL (≈ 3.45 µM); in the assay with Escherichia coli [6], 125 µg/mL (≈ 394 µM).
`CC[C@H](C)[C@@H]1NC(=O)[C@@H](Cc2c[nH]c3cc(Br)ccc23)NC(=O)[C@@H](Cc2c[nH]c3ccc(Br)cc23)NC(=O)[C@@H](CO)NC(=O)[C@@H](CCC(=O)O)NC(=O)[C@@H](C(C)C)NC1=O`: the results for the MIC in the assay on Bacillus subtilis [7], in the assay with Staphylococcus aureus [8] and in the assay with Staphylococcus aureus [9] were 1.6 µg/mL, 25 µg/mL and above 100 µg/mL, respectively.
As for `COC(=O)c1[nH]c(C(=O)O)c(-c2c[nH]c3c(Cl)cccc23)c1-c1c[nH]c2c(Cl)cccc12`, the MIC is 3 µg/mL (≈ 6.41 µM) with Staphylococcus aureus [10] and 16 µg/mL (≈ 34.2 µM) in the assay on Micrococcus luteus.
In the case of `C[C@@H]1C[C@@]2(C)O[C@]1(O)[C@@H]1C(=O)O[C@@]34C[C@@H](C)[C@@]5(C)O[C@@]13C(=C[C@@H]4C5O)C2=O` (some centres not stated), in the assay with Bacillus cereus, the MIC came to 50 µg/mL (≈ 133 µM).
Turning to `CC[C@H](C)C[C@@]1(O)C(=O)C[C@H](O)[C@](C)(O)/C=C(\C)[C@@H](O)/C(C)=C/C(C)=C/C[C@@H](CO[C@@H]2O[C@H](CO)[C@@H](O)[C@H](O)[C@H]2O)OC(=O)C[C@@H](O)CNC1=O`, the MIC was 21 µg/mL with Staphylococcus aureus [12] and 27.9 µg/mL with Escherichia coli [13].
Turning to `CC[C@H](C)[C@@H]1NC(=O)[C@@H](Cc2c[nH]c3cc(Cl)ccc23)NC(=O)[C@@H](Cc2c[nH]c3ccc(Cl)cc23)NC(=O)[C@@H](CO)NC(=O)[C@@H](CCC(=O)O)NC(=O)[C@@H](C(C)C)NC1=O`, the figures for the MIC in the assay on Bacillus subtilis [7], in the assay with Staphylococcus aureus [8] and with Staphylococcus aureus [9] were 1.6 µg/mL, 3.1 µg/mL and 1.6 µg/mL, respectively.
Take `COc1ccc(OC)c([C@@H](O)[C@@H](C)C(=O)c2ccc(OC)c(C(=O)O)c2O)c1`: the MIC is 18 µg/mL (≈ 46.1 µM) with Staphylococcus aureus [14], above 100 µg/mL with Escherichia coli [15] and 10 µg/mL (≈ 25.6 µM) with Bacillus subtilis [16].
Turning to `CC[C@@H](/C=C/[C@@H]1C/C=C(\C)[C@@H](O)[C@@H](C)[C@H](O)C[C@@H](O)[C@@H](C)[C@H](O)C[C@@H]2C[C@H](O)[C@@H](O)[C@](O)(C[C@@H](O[C@H]3O[C@@H](C)[C@H](O)[C@@H](O[C@H]4C[C@H](N)[C@@H](O)[C@@H](C)O4)[C@@H]3O[C@H]3O[C@@H](C)[C@H](O)[C@@H](O)[C@@H]3O)[C@@H](C)/C=C/[C@@H](O)C[C@@H](O)[C@@H](C)/C=C/C(=O)O1)O2)[C@@H](O)[C@@H](C)[C@H](CC)O[C@H]1C[C@](C)(N)[C@H](O)[C@H](C)O1`, the MIC in the assay with Staphylococcus aureus [1] is 1 µg/mL (≈ 0.702 µM).
For the compound `CC1C[C@@](C)(C(=O)[C@]23C=C[C@@]45C[C@H](C)[C@@](C)(O[C@]42CC(=O)O5)[C@H]3O)OC1=O` (some centres not stated), the MIC with Bacillus cereus is 25 µg/mL (≈ 66.4 µM).
Turning to `CC[C@H](C)C[C@]1(O)C(=O)NC[C@H](O)CC(=O)O[C@H](CO[C@@H]2O[C@H](CO)[C@@H](O)[C@H](O)[C@H]2O)CC/C=C(\C)[C@H]2C(C)=C[C@@]3(C)O[C@H]4C[C@]1(O)O[C@@]4(C)[C@@H]23`, the MIC worked out at 11.6 µg/mL with Staphylococcus aureus [12] and 15.7 µg/mL with Escherichia coli [13].
On to `CC(=O)OC1[C@H]2C=C3C(=O)[C@@]4(C)C[C@@H](C)[C@](O)(O4)[C@@H]4C(=O)O[C@]25C[C@@H](C)[C@@]1(C)O[C@@]345` (some centres not stated), for which the MIC in the assay on Bacillus cereus was above 50 µg/mL.
Regarding `C[C@@H](O)[C@@H]1CC[C@H](c2ccc(O)c3c2C(=O)[C@]24O[C@]2([C@@H](C)O[C@@H]2CC(=O)O[C@@H]24)[C@H]3O)N1C`, the MIC in the assay with Staphylococcus aureus [11] amounted to 40 µg/mL (≈ 89.8 µM); in the assay on Enterococcus faecalis, 40 µg/mL.

What is called MIC is the least concentration at which growth counts as inhibited.
